Biological target: T1, Usp5 (Homo sapiens, UniProt P45974)
T1 construct: endogenous in cells; host or cells: A375 and A375R melanoma cells (also SK-Mel28)
T1 sequence (P45974 1-858): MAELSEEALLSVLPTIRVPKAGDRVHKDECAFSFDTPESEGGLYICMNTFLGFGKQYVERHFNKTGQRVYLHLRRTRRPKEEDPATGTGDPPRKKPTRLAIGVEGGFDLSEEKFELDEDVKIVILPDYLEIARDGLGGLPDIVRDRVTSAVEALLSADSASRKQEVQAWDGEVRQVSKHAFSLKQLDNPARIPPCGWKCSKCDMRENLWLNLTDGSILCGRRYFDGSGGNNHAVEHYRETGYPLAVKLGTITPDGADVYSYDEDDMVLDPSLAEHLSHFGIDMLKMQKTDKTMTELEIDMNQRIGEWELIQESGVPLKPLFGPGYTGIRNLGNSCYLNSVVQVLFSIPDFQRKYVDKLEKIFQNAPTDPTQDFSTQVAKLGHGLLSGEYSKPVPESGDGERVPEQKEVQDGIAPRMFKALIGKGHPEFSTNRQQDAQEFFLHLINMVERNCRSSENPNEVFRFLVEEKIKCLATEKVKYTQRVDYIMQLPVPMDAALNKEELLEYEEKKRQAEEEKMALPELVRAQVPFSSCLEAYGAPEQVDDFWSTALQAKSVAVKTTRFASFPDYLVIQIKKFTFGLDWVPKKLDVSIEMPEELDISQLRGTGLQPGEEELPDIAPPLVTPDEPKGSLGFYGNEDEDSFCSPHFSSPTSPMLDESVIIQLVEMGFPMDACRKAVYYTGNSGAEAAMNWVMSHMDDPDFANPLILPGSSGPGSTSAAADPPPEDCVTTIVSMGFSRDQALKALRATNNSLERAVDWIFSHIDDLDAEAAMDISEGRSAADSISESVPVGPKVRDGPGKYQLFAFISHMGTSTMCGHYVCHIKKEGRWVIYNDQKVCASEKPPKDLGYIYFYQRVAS
Test: DUB activity (HA-Ub labelling) in treated cells
Assay type: cell-based
Protocol: DUB activity was assessed by HA blotting and confirmed by monitoring a DUBs mobility shift due to its covalent modification with HA-Ub. DUB inhibition was detected in vemurafenib-responsive (SK-Mel28 and A375) cells and we noted a consistent change in a DUB (100 kDa) identified as Usp5 by LC/MS/MS of the excised protein band (data not shown) and direct immunoblotting. […] DUB activity was also compared in control and BRAF knockdown (KD) cells. BRAF shRNA reduced pERK levels and Usp5 activity.
Similar results were obtained in A375R Usp5 KD cells treated with a MEK inhibitor.

Compound: CCCC(NC(=O)/C(C#N)=C/c1nc(Cl)ccc1Cl)c1ccc(OCCN2CCOCC2)cc1 (centres unmarked) [Compound G9, (E)-2-Cyano-3-(3,6-dichloropyridin-2-yl)-N-(1-(4-(2-morpholinoethoxy)phenyl)butyl)acrylamide]
- Usp5 inhibition (myeloma (MM1.S) cells, various concentrations, FIG. 10): inhibits Usp9x and Usp5
- Usp5 activity (vemurafenib sensitive and resistant A375 cells): reduced Usp5 (and Usp9x) activity in both cell types
